Read-outs that look alike come from different tables or passages of the source. Square brackets hold non-standard residues; d marks the D form. Peptide text beside a SMILES is read from it. * marks the point of attachment. hPhe = N[CH](CCc1ccccc1)C(=O)O; Cbz = O=C(OCc1ccccc1)*
How the values were obtained:
myeloma = conditions: phase II study that led to FDA approval; cited from earlier work
[1] = system: IM-9 human B-lymphoblasts; experiment: Proteasome inhibitor-induced apoptosis, ELISA of apoptotic nuclear DNA fragmentation; format: cell-based; conditions: 18 hours
Procedure: (§1) Cultured NCI-H929 human myeloma cells, IM-9 human B-lymphoblasts, HPAC human pancreatic adenocarcinoma cells, and Hs 294T human melanoma cells were exposed to vehicle, 5 nM bortezomib (PS-341), or 50 μM Cbz-LnL-CHO for 18 hours. Apoptosis was evaluated using an enzyme-linked immunosorbent assay that detects apoptotic nuclear DNA fragmentation. Cell death is expressed as the fold-increase in apoptosis over the vehicle control, which was arbitrarily set at 1.0. Referring now to FIG. 2, the effect of PS-341 is shown in the open bar graphs, while Cbz-LnL-CHO (IPSI-001) is in the stippled bar graphs. The mean and standard error of the mean are shown for each condition from four independent experiments.

[2] = system: HPAC human pancreatic adenocarcinoma cells; experiment: as above; format: cell-based; conditions: 5 nM, 18 hours
Procedure: as §1

[3] = system: Hs 294T human melanoma cells; experiment: as above; format: cell-based; conditions: 5 nM, 18 hours
Procedure: as §1

[4] = system: NCI-H929 human myeloma cells; experiment: as above; format: cell-based; conditions: 18 hours
Procedure: as §1

[5] = molecular target: T1, proteasome from pituitary tissue (X/Y/Z isoform, constitutive proteasome), chymotrypsin-like (ChT-L) activity (Bos taurus, UniProt Q32KL2); experiment: Inhibition of ChT-L activity of pituitary proteasome (constitutive proteasome); format: biochemical; conditions: substrate Cbz-GGF-pAB; for IC50: read-out: IC50 instead of Ki (†), Pituitary Proteasome, ChT-L component; for Ki: Dixon plots, without preincubation, read-out: Ki (μM) Pituitary Proteasome, ChT-L component
T1 construct: the proteasome from pituitary tissue, representative of the X/Y/Z isoform; from tissue; host or cells: pituitary
From the text: (§2) To investigate the possibility that inhibitors specific for the immunoproteasome could be identified, the proteasome from pituitary tissue, representative of the X/Y/Z isoform (i.e., the constitutive proteasome), and the proteasome from spleen tissue, representative of the LMP-2/7/10 isoform (i.e., the immunoproteasome), were each purified to homogeneity. A panel of peptidyl-aldehyde substrate-related inhibitors were then screened for their ability to inhibit the chymotrypsin-like (ChT-L) and branched chain amino acid preferring (BrAAP) activities of these two proteasome preparations.
(§3) […] Determinations were carried out at three substrate concentrations and at six different inhibitor concentrations without preincubation of the enzyme with inhibitors. Substrate concentrations were 0.1 to 0.4 mM for the BrAAP activity of the spleen, and 0.5 to 4.0 mM for the ChT-L activity, and 1.0 to 4.0 mM for all others. The substrate for the BrAAP activity was Cbz-GPALG-pAB, and Cbz-GGF-pAB for the ChT-L activity. Data are averages±standard error, with the number of determinations shown in parentheses.
as §3, with “for the […] activity of” for “for the BrAAP activity of”, “in parentheses. † indicates IC50 instead of Ki. NI indicates no inhibition in the tested range.” for “in parentheses.”
as §3, with “parentheses. † indicates IC50 instead of Ki. NI indicates no inhibition in the tested range.” for “parentheses.”

[6] = molecular target: T2, proteasome from spleen tissue (LMP-2/7/10 isoform, immunoproteasome), chymotrypsin-like (ChT-L) activity (UniProt Q3T112); experiment: Inhibition of ChT-L activity of spleen proteasome (immunoproteasome); format: biochemical
T2 construct: Ki (μM) Spleen Proteasome, ChT-L component; other: substrate Cbz-GGF-pAB, Dixon plots, without preincubation; other: substrate Cbz-GGF-pAB
T2 sequence (Q3T112 1-276): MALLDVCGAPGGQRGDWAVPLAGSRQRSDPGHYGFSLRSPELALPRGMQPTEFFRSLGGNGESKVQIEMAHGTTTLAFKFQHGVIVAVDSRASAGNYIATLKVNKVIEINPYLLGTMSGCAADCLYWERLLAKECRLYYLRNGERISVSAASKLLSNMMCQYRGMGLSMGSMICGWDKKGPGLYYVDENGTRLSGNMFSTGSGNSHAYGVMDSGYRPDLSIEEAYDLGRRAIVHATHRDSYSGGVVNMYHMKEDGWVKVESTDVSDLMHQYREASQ
From the text: as §2, with “preparations. […] The same was true for Cbz-FL-CHO, the peptide aldehyde version of bortezomib.” for “preparations.”
(§4) Dixon plots were used to obtain Ki values. Determinations were carried out at three substrate concentrations and at six different inhibitor concentrations without preincubation of the enzyme with inhibitors. Substrate concentrations were 0.1 to 0.4 mM for the BrAAP activity of the spleen, and 0.5 to 4.0 mM for the ChT-L activity, and 1.0 to 4.0 mM for all others. The substrate for the BrAAP activity was Cbz-GPALG-pAB, and Cbz-GGF-pAB for the ChT-L activity. Data are averages±standard error, with the number of determinations shown in parentheses.
as §4, with “for the […] activity of” for “for the BrAAP activity of”, “in parentheses. † indicates IC50 instead of Ki. NI indicates no inhibition in the tested range.” for “in parentheses.”
as §4, with “parentheses. † indicates IC50 instead of Ki. NI indicates no inhibition in the tested range.” for “parentheses.”

[7] = system: proteasome from spleen tissue (LMP-2/7/10 isoform, immunoproteasome), chymotrypsin-like (ChT-L) activity; experiment: as above; format: biochemical; conditions: spleen versus pituitary proteasome, in vitro
From the text: as §2, with “preparations. […] The same was true for Cbz-FL-CHO, the peptide aldehyde version of bortezomib.” for “preparations.”
as §4
as §4, with “for the […] activity of” for “for the BrAAP activity of”, “in parentheses. † indicates IC50 instead of Ki. NI indicates no inhibition in the tested range.” for “in parentheses.”
as §4, with “parentheses. † indicates IC50 instead of Ki. NI indicates no inhibition in the tested range.” for “parentheses.”

[8] = system: proteasome from spleen tissue (LMP-2/7/10 isoform, immunoproteasome), branched chain amino acid preferring (BrAAP) activity; experiment: Inhibition of BrAAP activity of spleen proteasome (immunoproteasome); format: biochemical; conditions: spleen versus pituitary proteasome, in vitro
From the text: as §2, with “preparations. […] The same was true for Cbz-FL-CHO, the peptide aldehyde version of bortezomib.” for “preparations.”
as §4
Dixon plots were used to obtain Ki values. […]

[9] = substrate Cbz-GGF-pAB, Dixon plots, without preincubation; read-out: Ki (μM) Spleen Proteasome, ChT-L component
[10] = read-out: Ki (μM) Spleen Proteasome, ChT-L component; substrate Cbz-GGF-pAB, Dixon plots, without preincubation

| SMILES | IC50 [5] [µM] | Ki [5] [µM] | Ki [6, 9] [µM] | other results |
| --- | --- | --- | --- | --- |
| CC(C)C[C@H](NC(=O)[C@H](Cc1ccccc1)NC(=O)c1cnccn1)B(O)O [Bortezomib, reference compound] |  |  |  | patients with myeloma with partial responses or better (myeloma): 28%; induction of apoptosis (fold-increase over the vehicle control) ([1]; IM-9, 5 nM): induces apoptosis roughly equally in all of the cell lines tested; induction of apoptosis (fold-increase over the vehicle control) [2]: induces apoptosis roughly equally in all of the cell lines tested; induction of apoptosis (fold-increase over the vehicle control) [3]: induces apoptosis roughly equally in all of the cell lines tested; induction of apoptosis (fold-increase over the vehicle control) ([4]; NCI-H929, 5 nM): induces apoptosis roughly equally in all of the cell lines tested |
| CC(NC(=O)OCc1ccccc1)C(=O)NC(C=O)Cc1ccccc1 (stereo not drawn) [Cbz-AF-CHO, N-carbobenzyloxy-alanyl-phenylalanylal] | 380 |  |  | IC50 ([6]; substrate Cbz-GGF-pAB; read-out: IC50 instead of Ki (†), Spleen Proteasome, ChT-L component): 24 µM |
| O=CC(Cc1ccccc1)NC(=O)C(Cc1ccccc1)NC(=O)OCc1ccccc1 (stereo not drawn) [Cbz-FF-CHO, N-carbobenzyloxy-phenylalanyl-phenylalanylal] (Cbz-Phe-Phe-aldehyde; configuration not given here) |  | 56 ± 4.4 | 4 ± 0.27 |  |
| CC(C)CC(C=O)NC(=O)C(Cc1ccccc1)NC(=O)OCc1ccccc1 (stereo not drawn) [Cbz-FL-CHO, reference compound] (Cbz-Phe-Leu-aldehyde; configuration not given here) |  | 5.55 ± 0.47 | 2.1 ± 0.29 |  |
| O=CC(Cc1ccccc1)NC(=O)C(Cc1ccccc1)NC(=O)CNC(=O)OCc1ccccc1 (stereo not drawn) [Cbz-GFF-CHO, N-carbobenzyloxy-glycyl-phenylalanyl-phenylalanylal] (Cbz-Gly-Phe-Phe-aldehyde; configuration not given here) | 2.7 |  |  | IC50 ([6]; read-out: IC50 instead of Ki (†), Spleen Proteasome, ChT-L component; substrate Cbz-GGF-pAB): 1.03 µM |
| CC(NC(=O)C1CCCN1C(=O)CNC(=O)OCc1ccccc1)C(=O)NC(C=O)Cc1ccccc1 (stereo not drawn) [Cbz-GPAF-CHO, N-carbobenzyloxy-glycyl-prolyl-alanyl-phenylalanylal] (Cbz-GPAF-aldehyde; configuration not given here) |  | 460 ± 66 |  | Ki [6, 10]: 8.4 ± 0.52 µM |
| O=CC(Cc1ccccc1)NC(=O)C(Cc1ccccc1)NC(=O)C1CCCN1C(=O)CNC(=O)OCc1ccccc1 (stereo not drawn) [Cbz-GPFF-CHO, N-carbobenzyloxy-glycyl-prolyl-phenylalanyl-phenylalanylal] (Cbz-GPFF-aldehyde; configuration not given here) |  | 58 ± 1.8 |  | Ki [6, 10]: 5.6 ± 1.1 µM |
| CC(C)CC(C=O)NC(=O)C(C)NC(=O)C(CC(C)C)NC(=O)OCc1ccccc1 (stereo not drawn) [Cbz-LAL-CHO, reference compound] (Cbz-Leu-Ala-Leu-aldehyde; configuration not given here) |  | 0.82 ± 0.15 | 1.45 ± 1.05 |  |
| CC(C)CC(NC(=O)OCc1ccccc1)C(=O)NC(C=O)Cc1ccccc1 (stereo not drawn) [Cbz-LF-CHO, N-carbobenzyloxy-leucyl-phenylalanylal] (Cbz-Leu-Phe-aldehyde; configuration not given here) | 154 |  | 5.6 ± 0.2 |  |
| CC(C)CC(NC(=O)OCc1ccccc1)C(=O)NC(CC(C)C)C(=O)NC(C=O)Cc1ccccc1 (stereo not drawn) [Cbz-LLF-CHO, N-carbobenzyloxy-leucyl-leucyl-phenylalanylal] (Cbz-Leu-Leu-Phe-aldehyde; configuration not given here) |  | 1.6 ± 0.5 |  | Ki [6, 10]: 5.97 ± 1.4 µM |
| CC(C)C[C@@H](C=O)NC(=O)[C@H](CC(C)C)NC(=O)[C@H](CC(C)C)NC(=O)OCc1ccccc1 [Cbz-LLL-CHO, reference compound] (Cbz-Leu-Leu-Leu-aldehyde) |  | 6.9 ± 0.84 | 5.1 ± 0.9 |  |
| CCCCC(C=O)NC(=O)C(CC(C)C)NC(=O)OCc1ccccc1 (stereo not drawn) [Cbz-LnL-CHO, N-carbobenzyloxy-leucyl-norleucinal] |  | 105 ± 1.3 | 1.03 ± 0.17 | preference for the LMP-containing ChT-L proteasome activity [7]: greater than 100 fold; preference for the LMP-containing BrAAP proteasome activity [8]: greater than 160 fold; induction of apoptosis (fold-increase over the vehicle control) ([1]; IM-9, 50 μM): induces significant apoptosis; induction of apoptosis (fold-increase over the vehicle control) ([4]; NCI-H929, 50 μM): induces significant apoptosis |
| O=CC(Cc1ccccc1)NC(=O)C(CCc1ccccc1)NC(=O)OCc1ccccc1 (stereo not drawn) [Cbz-hFF-CHO, N-carbobenzyloxy-homophenylalanyl-phenylalanylal] (Cbz-[hPhe]-Phe-aldehyde; configuration not given here) | 40 |  | 2.74 ± 0.33 |  |
